These results are taken from patent US20220073536A1 (Rigel Pharmaceuticals, Inc., priority 2003, published 2022).

Each structure is given as a SMILES string.

Assay [1] concerns cultured human mast cells (CHMC). Kind of assay: CHMC low cell density ionomycin activation: tryptase assay. To be noted: 3 pt, read-out: LD Tryptase, CHMC, Iono, 3 pt. The format is cell-based.
Assay [2] shares this test system. The assay can be described thus: CHMC low cell density IgE activation: tryptase assay. The format is cell-based. The note with it: IgE activation. In a few lines: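 Tryptase release, fluorogenic substrate, 30 min RT. Prior anti-IgE stimulation of CHMC, 30 min, 37 °C, after 1 hr preincubation at 1000–1500 cells/well in MT; unstimulated wells received MT.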
Where [3] appears, read: low cell density CHMC, tryptase readout.
The mark [4] stands for this setting: low cell density CHMC, tryptase readout, 3 pt, read-out: LD Tryptase, CHMC, IgE, 3 pt.
Setting [5] is: low cell density CHMC, tryptase readout, 8 pt, read-out: LD Tryptase, CHMC, IgE, 8 pt.
[6] abbreviates: Homo sapiens, Mast cell, low cell density CHMC, tryptase readout.
Setting [7] is: Homo sapiens, Mast cell, low cell density CHMC, tryptase readout, 3 pt, read-out: LD Tryptase, CHMC, IgE, 3 pt.
The mark [8] stands for this setting: Homo sapiens, Mast cell, low cell density CHMC, tryptase readout, 8 pt, read-out: LD Tryptase, CHMC, IgE, 8 pt.

`CN1C(=O)C(C)(C)Oc2ccc(Nc3nc(Cl)ncc3F)nc21` [Compound 1006, 2-Chloro-5-fluoro-N4-(3-oxo-2,2,4-trimethyl-5-pyrid[1,4]oxazin-6-yl)-4-pyrimidineamine]: the IC50 in assay [1] (low cell density) is > 10 µM; in assay [2] (low cell density, 3 pt, read-out: LD Tryptase, CHMC, IgE, 3 pt), > 10 µM.

In the case of `CCOc1c(C)cc(Nc2ncc(F)c(Nc3ccc4c(c3)NC(=O)C(C)(C)O4)n2)cc1Cl` [Compound 1008, N2-(3-Chloro-4-ethoxy-5-methylphenyl)-N4-(2,2-dimethyl-3-oxo-4H-benz[1,4]oxazin-6-yl)-5-fluoro-2,4-pyrimidinediamine], the IC50 in assay [1] (Homo sapiens, Mast cell, low cell density) is < 10 µM; in assay [2] (Homo sapiens, Mast cell, low cell density, 3 pt, read-out: LD Tryptase, CHMC, IgE, 3 pt), < 10 µM; in assay [2] (Homo sapiens, Mast cell, low cell density, 8 pt, read-out: LD Tryptase, CHMC, IgE, 8 pt) it was < 10 µM.

For `COc1c(C)cc(Nc2ncc(F)c(Nc3ccc4c(n3)N(C)C(=O)C(C)(C)O4)n2)cc1Cl` [Compound 1009, N2-(3-Chloro-4-methoxy-5-methylphenyl)-5-fluoro-N4-(3-oxo-2,2,4-trimethyl-5-pyrid[1,4]oxazin-6-yl)-2,4-pyrimidinediamine], the IC50 in assay [1] (setting [3]) was > 10 µM; in assay [2] (setting [4]), < 10 µM; in assay [2] (setting [5]), < 10 µM.

As for `CCOc1c(C)cc(Nc2ncc(F)c(Nc3ccc4c(n3)NC(=O)C(C)(C)O4)n2)cc1Cl` [Compound 1010, N2-(3-Chloro-4-ethoxy-5-methylphenyl)-N4-(2,2-dimethyl-3-oxo-4H-5-pyrid[1,4]oxazin-6-yl)-5-fluoro-2,4-pyrimidinediamine], the IC50 in assay [1] (setting [3]) is > 10 µM; in assay [2] (setting [4]), < 10 µM.

With `CC1(C)Oc2ccc(Nc3nc(Nc4ccc(-c5ncco5)cc4)ncc3F)cc2NC1=O` [Compound 1011, N4-(2,2-Dimethyl-3-oxo-4H-benz[1,4]oxazin-6-yl)-5-fluoro-N2-[4-(oxazol-2-yl)phenyl]-2,4-pyrimidinediamine], the IC50 in assay [1] (setting [6]) was > 10 µM; in assay [2] (setting [7]), < 10 µM; in assay [2] (setting [8]) it was < 10 µM.

Take `CN1C(=O)C(C)(C)Oc2ccc(Nc3nc(Nc4cccc(-c5ncco5)c4)ncc3F)nc21` [Compound 1012, 5-Fluoro-N2-[3-(oxazol-2-yl)phenyl]-N4-[3-oxo-2,2,4-trimethyl-5-pyrid[1,4]oxazin-6-yl]-2,4-pyrimidinediamine]: the IC50 in assay [1] (setting [3]) was > 10 µM; in assay [2] (setting [4]), < 10 µM; in assay [2] (setting [5]) it was < 10 µM.

With `CN1C(=O)C(C)(C)Oc2ccc(Nc3nc(Nc4ccc(-c5ncco5)cc4)ncc3F)nc21` [Compound 1013, 5-Fluoro-N2-[4-(oxazol-2-yl)phenyl]-N4-[3-oxo-2,2,4-trimethyl-5-pyrid[1,4]oxazin-6-yl]-2,4-pyrimidinediamine], the IC50 was > 10 µM in assay [1] (setting [3]) and < 10 µM in assay [2] (setting [4]).

With `CCOC(=O)COc1c(C)cc(Nc2ncc(F)c(Nc3ccc4c(c3)NC(=O)C(C)(C)O4)n2)cc1Cl` [Compound 1014, N2-[3-Chloro-4-ethoxycarbonylmethyleneoxy-5-methylphenyl]-N4-(2,2-dimethyl-3-oxo-4H-benz[1,4]oxazin-6-yl)-5-fluoro-2,4-pyrimidinediamine], the IC50 in assay [1] (setting [3]), in assay [2] (setting [4]) and in assay [2] (setting [5]) was < 10 µM in each case.

For `CNC(=O)COc1cccc(Nc2ncc(F)c(Nc3ccc4c(n3)N(C)C(=O)C(C)(C)O4)n2)c1` [Compound 1015, 5-Fluoro-N2-[3-(N-methylamino)carbonylmethyleneoxyphenyl]-N4-[3-oxo-2,2,4-trimethyl-5-pyrid[1,4]oxazin-6-yl]-2,4-pyrimidinediamine], the results for the IC50 in assay [1] (setting [3]), in assay [2] (setting [4]) and in assay [2] (setting [5]) were > 10 µM, < 10 µM and < 10 µM, respectively.

In the case of `CC1(C)Oc2ccc(Nc3nc(Nc4cccc(-c5cnco5)c4)ncc3F)cc2NC1=O` [Compound 1016, N4-(2,2-Dimethyl-3-oxo-4H-benz[1,4]oxazin-6-yl)-5-fluoro-N2-[3-(oxazol-5-yl)phenyl]-2,4-pyrimidinediamine], the IC50 in assay [1] (setting [6]) is > 10 µM; in assay [2] (setting [7]) it was < 10 µM; in assay [2] (setting [8]), < 10 µM.

On to `CN1C(=O)C(C)(C)Oc2ccc(Nc3nc(Nc4cccc(-c5cnco5)c4)ncc3F)nc21` [Compound 1017, 5-Fluoro-N2-[3-(oxazol-5-yl)phenyl]-N4-[3-oxo-2,2,4-trimethyl-5-pyrid[1,4]oxazin-6-yl]-2,4-pyrimidinediamine], for which the results for the IC50 in assay [1] (setting [3]), in assay [2] (setting [4]) and in assay [2] (setting [5]) were > 10 µM, < 10 µM and < 10 µM, respectively.

In the case of `Cc1cc(Nc2ncc(F)c(Nc3ccc4c(c3)NC(=O)C(C)(C)O4)n2)cc(Cl)c1OC1CCCC1` [Compound 1018, N2-[3-Chloro-4-cyclopentyloxy-5-methylphenyl]-N4-(2,2-dimethyl-3-oxo-4H-benz[1,4]oxazin-6-yl)-5-fluoro-2,4-pyrimidinediamine], the IC50 in assay [1] (setting [6]) is > 10 µM; in assay [2] (setting [7]), < 10 µM; in assay [2] (setting [8]) it was < 10 µM.

With `CN(c1ccc2c(c1)NC(=O)C(C)(C)O2)c1nc(Nc2cccc(-c3ncco3)c2)ncc1F` [Compound 1019, N4-(2,2-Dimethyl-3-oxo-4H-benz[1,4]oxazin-6-yl)-5-fluoro-N4-methyl-N2-[3-(oxazol-2-yl)phenyl]-2,4-pyrimidinediamine], the IC50 in assay [1] (setting [6]) is > 10 µM; in assay [2] (setting [7]) it was < 10 µM; in assay [2] (setting [8]), < 10 µM.

`CC1(C)Oc2ccc(Nc3nc(Nc4ccc(-c5cnco5)cc4)ncc3F)cc2NC1=O` [Compound 1020, N4-(2,2-Dimethyl-3-oxo-4H-benz[1,4]oxazin-6-yl)-5-fluoro-N2-[4-(oxazol-5-yl)phenyl]-2,4-pyrimidinediamine]: the IC50 in assay [1] (setting [6]) was > 10 µM; in assay [2] (setting [7]), < 10 µM; in assay [2] (setting [8]), < 10 µM.

In the case of `CN(c1ccc2c(c1)NC(=O)C(C)(C)O2)c1nc(Nc2ccc(-c3ncco3)cc2)ncc1F` [Compound 1021], the IC50 in assay [1] (setting [6]), in assay [2] (setting [7]) and in assay [2] (setting [8]) was < 10 µM in each case.

`CNC(=O)COc1cccc(Nc2ncc(F)c(N(C)c3ccc4c(c3)NC(=O)C(C)(C)O4)n2)c1` [Compound 1022, N4-(2,2-Dimethyl-3-oxo-4H-benz[1,4]oxazin-6-yl)-5-fluoro-N4-methyl-N2-[3-(N-methylamino)carbonylmethyleneoxyphenyl]-2,4-pyrimidinediamine]: the IC50 was > 10 µM in assay [1] (setting [3]), < 10 µM in assay [2] (setting [4]) and < 10 µM in assay [2] (setting [5]).

For `CN(c1ccc2c(c1)NC(=O)C(C)(C)O2)c1nc(Nc2cccc(-c3cnco3)c2)ncc1F` [Compound 1023, N4-(2,2-Dimethyl-3-oxo-4H-benz[1,4]oxazin-6-yl)-5-fluoro-N4-methyl-N2-[3-(oxazol-5-yl)phenyl]-2,4-pyrimidinediamine], the IC50 in assay [1] (setting [6]) was > 10 µM; in assay [2] (setting [7]), < 10 µM; in assay [2] (setting [8]), < 10 µM.

In the case of `CN1C(=O)C(C)(C)Oc2ccc(N(C)c3nc(Nc4ccc(-c5ncco5)cc4)ncc3F)cc21` [Compound 1024], the IC50 in assay [1] (setting [6]) and in assay [2] (setting [7]) was < 10 µM each time.

In the case of `CN1C(=O)C(C)(C)Oc2ccc(N(C)c3nc(Nc4cccc(-c5ncco5)c4)ncc3F)cc21` [Compound 1025, 5-Fluoro-N4-methyl-N2-[3-(oxazol-2-yl)phenyl]-N4-(3-oxo-2,2,4-trimethylbenz[1,4]oxazin-6-yl)-2,4-pyrimidinediamine], the IC50 in assay [1] (setting [6]) and in assay [2] (setting [7]) was < 10 µM throughout.

`CN1C(=O)C(C)(C)Oc2ccc(N(C)c3nc(Nc4ccc(-c5cnco5)cc4)ncc3F)cc21` [Compound 1026]: the IC50 in assay [1] (setting [6]) is > 10 µM; in assay [2] (setting [7]), < 10 µM.

`Cc1cc(Nc2ncc(F)c(Nc3ccc4c(n3)NC(=O)C(C)(C)O4)n2)cc(Cl)c1OC1CCCC1` [Compound 1027, N2-(3-Chloro-4-cyclopentyloxy-5-methylphenyl)-N4-(2,2-dimethyl-3-oxo-4H-5-pyrid[1,4]oxazin-6-yl)-5-fluoro-2,4-pyrimidinediamine]: the IC50 in assay [1] (setting [3]) was > 10 µM; in assay [2] (setting [4]), < 10 µM.

`CC1(C)Oc2ccc(Nc3nc(Nc4cccc(-c5ncco5)c4)ncc3F)nc2NC1=O` [Compound 1028, N4-(2,2-Dimethyl-3-oxo-4H-5-pyrid[1,4]oxazin-6-yl)-5-fluoro-N2-[3-(oxazol-2-yl)phenyl]-2,4-pyrimidinediamine]: the figures for the IC50 in assay [1] (setting [3]), in assay [2] (setting [4]) and in assay [2] (setting [5]) were > 10 µM, < 10 µM and < 10 µM, respectively.

Consider `CC1(C)Oc2ccc(Nc3nc(Nc4cccc(-c5cocn5)c4)ncc3F)nc2NC1=O` [Compound 1029, N4-(2,2-Dimethyl-3-oxo-4H-5-pyrid[1,4]oxazin-6-yl)-5-fluoro-N2-[3-(oxazol-4-yl)phenyl]-2,4-pyrimidinediamine], for which the IC50 in assay [1] (setting [3]) is > 10 µM; in assay [2] (setting [4]), < 10 µM; in assay [2] (setting [5]), < 10 µM.

For the molecule `CN1C(=O)C(C)(C)Oc2ccc(N(C)c3nc(Nc4cccc(-c5cocn5)c4)ncc3F)cc21` [Compound 1030], the IC50 in assay [1] (setting [6]) and in assay [2] (setting [7]) was < 10 µM each time.

For `COc1c(C)cc(Nc2ncc(F)c(N(C)c3ccc4c(c3)N(C)C(=O)C(C)(C)O4)n2)cc1C` [Compound 1031], the figures for the IC50 in assay [1] (setting [6]) and in assay [2] (setting [7]) were > 10 µM and < 10 µM, respectively.
